# Laboratory results reported in ChEMBL document CHEMBL1130882, “C-alkylated spiro[benzofuran-3(2H),4'-1'-methyl-piperidine-7-ols] as potent opioids: a conformation-activity study” (Bioorg Med Chem Lett, 1998).
# Key:
# Mu-type opioid receptor = Mu-type opioid receptor (Cavia porcellus, UniProt P97266); test: Binding affinity against mu opioid receptor was determined in brain membrane preparations from male Hartley guinea-pigs; assay type: cell membranes
# [1] = target: Kappa-type opioid receptor (Cavia porcellus, UniProt P41144); test: Binding affinity against Opioid receptor kappa 1 was determined in brain membrane preparations from male Hartley guinea-pigs; assay type: cell membranes
# Kappa-type opioid receptor, sequence (P41144 whole entry): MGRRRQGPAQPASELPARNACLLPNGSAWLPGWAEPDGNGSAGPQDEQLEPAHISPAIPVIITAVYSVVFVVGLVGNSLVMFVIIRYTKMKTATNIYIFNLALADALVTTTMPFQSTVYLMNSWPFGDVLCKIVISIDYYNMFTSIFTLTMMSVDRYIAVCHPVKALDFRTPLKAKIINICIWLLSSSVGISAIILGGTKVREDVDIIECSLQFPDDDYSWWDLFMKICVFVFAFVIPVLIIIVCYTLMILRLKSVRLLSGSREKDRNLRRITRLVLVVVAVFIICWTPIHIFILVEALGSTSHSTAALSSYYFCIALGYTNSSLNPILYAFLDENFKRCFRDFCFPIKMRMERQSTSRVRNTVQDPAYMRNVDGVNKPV
# Mu-type opioid receptor, sequence (P97266 whole entry): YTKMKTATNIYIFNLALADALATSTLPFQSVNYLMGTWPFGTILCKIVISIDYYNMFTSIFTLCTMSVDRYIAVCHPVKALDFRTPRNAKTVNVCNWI
Compound,Ki (Mu-type opioid receptor),Ki [1]
CN1CCC2(CC1)COc1c(O)cccc12,1.65 µM,> 100 µM
CCC1Oc2c(O)cccc2C12CCN(C)CC2 (racemic),0.102 µM,> 100 µM
CC1Oc2c(O)cccc2C12CCN(C)CC2 (racemic),0.124 µM,> 100 µM
CC1CN(C)CCC12COc1c(O)cccc12 (racemic; form 1),0.054 µM,0.177 µM
CC1CN(C)CCC12COc1c(O)cccc12 (racemic; form 2),1.02 µM,0.505 µM
CCOC(=O)C1(c2ccccc2)CCN(C)CC1 [MEPERIDINE],–,> 100 µM
